Data from patent US10913742B2, “Oxadiazolones as transient receptor potential channel inhibitors” (Genentech, Inc., priority 2017, dated 2021).

Target: human TRPA1 (Homo sapiens (Human), UniProt O75762)
Assay: hTRPA1 CHO Ca2+ FLIPR assay (block of cinnamaldehyde induced calcium influx)
Type: cell-based
Conditions: CHO cells expressing TRPA1; 75 uM cinnamaldehyde; Hill coefficient fixed to 1.5; read-out: hTRPA1 (hTRPA1 CHO Ca2+ MAX EVO (IC50))
Experimental: CHO cells expressing TRPA1 were plated into 384-well plates, incubated overnight at 37° C., and loaded with BD calcium indicator dye for 1 hr at 37° C. followed by 15 minutes at room temperature. The assay buffer was Hank's Balanced Salt Solution (HBSS) containing 20 mM HEPES (pH readjusted to 7.4) along with 0.02% BSA.
Following dye load and plate cool down, compounds were added to the cells using FLIPR Tetra. Plates were then incubated with compounds for 20 minutes at room temperature prior to adding agonist.
The IC50 results were fit with a standard Hill function, keeping the Hill coefficient (n) fixed to 1.5. Fixing the Hill coefficient will generally reduce variability of the IC50 determination. The IC50 results were individually examined to make sure the MIN and MAX points were set correctly prior to validation of the results.

Sequence of human TRPA1 (O75762 whole entry): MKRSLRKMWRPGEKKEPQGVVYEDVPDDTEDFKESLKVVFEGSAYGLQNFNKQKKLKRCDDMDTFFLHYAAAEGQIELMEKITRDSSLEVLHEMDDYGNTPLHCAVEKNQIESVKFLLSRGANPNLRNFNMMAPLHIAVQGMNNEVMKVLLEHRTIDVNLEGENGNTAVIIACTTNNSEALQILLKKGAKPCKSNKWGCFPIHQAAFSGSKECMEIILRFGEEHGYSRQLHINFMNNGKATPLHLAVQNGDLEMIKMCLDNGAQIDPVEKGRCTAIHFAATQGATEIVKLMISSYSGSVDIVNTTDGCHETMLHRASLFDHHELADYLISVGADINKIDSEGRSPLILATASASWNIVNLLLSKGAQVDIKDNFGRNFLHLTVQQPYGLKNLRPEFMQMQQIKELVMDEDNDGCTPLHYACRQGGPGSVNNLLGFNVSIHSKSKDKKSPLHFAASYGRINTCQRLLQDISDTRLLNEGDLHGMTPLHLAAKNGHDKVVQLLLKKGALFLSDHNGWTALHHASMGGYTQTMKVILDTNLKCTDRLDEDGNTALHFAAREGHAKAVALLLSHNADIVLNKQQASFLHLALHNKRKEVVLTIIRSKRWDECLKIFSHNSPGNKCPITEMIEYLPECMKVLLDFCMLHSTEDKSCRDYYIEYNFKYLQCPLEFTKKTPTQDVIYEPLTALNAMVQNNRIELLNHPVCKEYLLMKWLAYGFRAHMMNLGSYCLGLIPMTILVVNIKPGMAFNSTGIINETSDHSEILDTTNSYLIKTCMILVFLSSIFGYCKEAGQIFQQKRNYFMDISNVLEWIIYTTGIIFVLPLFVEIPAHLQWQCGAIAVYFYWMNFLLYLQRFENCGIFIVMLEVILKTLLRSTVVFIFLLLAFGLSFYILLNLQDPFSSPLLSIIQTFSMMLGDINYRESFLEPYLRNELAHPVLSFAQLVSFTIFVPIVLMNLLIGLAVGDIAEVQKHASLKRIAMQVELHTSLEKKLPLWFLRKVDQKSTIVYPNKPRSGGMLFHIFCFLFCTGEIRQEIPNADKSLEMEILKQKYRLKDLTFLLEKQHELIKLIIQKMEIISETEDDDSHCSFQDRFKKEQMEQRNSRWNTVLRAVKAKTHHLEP

Row | Structure (SMILES) | IC50 [nM]
1 | Cc1csc2ncc(Cc3nn(CCc4ccc(Cl)cc4)c(=O)o3)c(=O)n12 [compound 47, 3-(4-chlorophenethyl)-5-((3-methyl-5-oxo-5H-thiazolo[3,2-a]pyrimidin-6-yl)methyl)-1,3,4-oxadiazol-2(3H)-one] | 65
2 | Cn1cnc2ncn(Cc3nn(C[C@@H]4CCc5ccc(Cl)cc54)c(=O)o3)c(=O)c21 [compound 48] | 196
3 | Cn1cnc2ncn(Cc3nn(C[C@@H]4CCc5cc(Cl)ccc54)c(=O)o3)c(=O)c21 [compound 49, (R)-3-((5-chloro-2,3-dihydro-1H-inden-1-yl)methyl)-5-((7-methyl-6-oxo-6,7-dihydro-1H-purin-1-yl)methyl)-1,3,4-oxadiazol-2(3H)-one] | 61
4 | Cn1cnc2ncn(Cc3nn([C@H]4C[C@H](c5ccccc5)C4)c(=O)o3)c(=O)c21 [compound 51, 5-[(7-methyl-6-oxo-purin-1-yl)methyl]-3-(3-phenylcyclobutyl)-1,3,4-oxadiazol-2-one] | 168
5 | Cn1cnc2ncn(Cc3nn([C@H]4C[C@H](c5ccc(Br)cc5)C4)c(=O)o3)c(=O)c21 [compound 52, 3-[3-(4-bromophenyl)cyclobutyl]-5-[(7-methyl-6-oxo-purin-1-yl)methyl]-1,3,4-oxadiazol-2-one] | 20
6 | Cn1cnc2ncn(Cc3nn([C@H]4C[C@H](c5cccc(Cl)c5)C4)c(=O)o3)c(=O)c21 [compound 53, 3-[3-(3-chlorophenyl)cyclobutyl]-5-[(7-methyl-6-oxo-purin-1-yl)methyl]-1,3,4-oxadiazol-2-one] | 44
7 | COc1ccc([C@H]2C[C@H](n3nc(Cn4cnc5ncn(C)c5c4=O)oc3=O)C2)cc1 [compound 54, 3-(3-(4-methoxyphenyl)cyclobutyl)-5-((7-methyl-6-oxo-6,7-dihydro-1H-purin-1-yl)methyl)-1,3,4-oxadiazol-2(3H)-one] | 105
8 | Cn1cnc2ncn(Cc3nn(CCc4ccc(-c5ccccc5)cc4)c(=O)o3)c(=O)c21 [compound 55, 5-[(7-methyl-6-oxo-purin-1-yl)methyl]-3-[2-(4-phenylphenyl)ethyl]-1,3,4-oxadiazol-2-one] | 251
9 | Cn1cc(C#N)c2ncn(Cc3nn(CCc4ccc(Cl)cc4)c(=O)o3)c(=O)c21 [compound 56, 3-((4-(4-chlorophenethyl)-5-oxo-4,5-dihydro-1,3,4-oxadiazol-2-yl)methyl)-5-methyl-4-oxo-4,5-dihydro-3H-pyrrolo[3,2-d]pyrimidine-7-carbonitrile] | 168
10 | Cc1ccc(=O)n2ccn(Cc3nn([C@H]4C[C@H](c5ccc(Cl)cc5)C4)c(=O)o3)c(=O)c12 [compound 58, 2-[[4-[3-(4-chlorophenyl)cyclobutyl]-5-oxo-1,3,4-oxadiazol-2-yl]methyl]-9-methyl-pyrido[1,2-a]pyrazine-1,6-dione] | 40.3
11 | Cc1cc(C#N)nc2ncn(Cc3nn([C@H]4C[C@](F)(c5ccc(F)cc5)C4)c(=O)o3)c(=O)c12 [compound 61, 3-[[4-[3-fluoro-3-(4-fluorophenyl)cyclobutyl]-5-oxo-1,3,4-oxadiazol-2-yl]methyl]-5-methyl-4-oxo-pyrido[2,3-d]pyrimidine-7-carbonitrile] | 11.2
12 | Cn1cnc2ncn(Cc3nn([C@H]4C[C@H](Oc5cccc(C#N)c5)C4)c(=O)o3)c(=O)c21 [compound 62, 3-[3-[5-[(7-methyl-6-oxo-purin-1-yl)methyl]-2-oxo-1,3,4-oxadiazol-3-yl]cyclobutoxy]benzonitrile] | 45.5
13 | Cn1cnc2ncn(Cc3nn([C@H]4C[C@H](Oc5cccc(F)c5)C4)c(=O)o3)c(=O)c21 [compound 63, trans-3-[3-(3-fluorophenoxy)cyclobutyl]-5-[(7-methyl-6-oxo-purin-1-yl)methyl]-1,3,4-oxadiazol-2-one] | 11.5
14 | Cn1nnc2ncn(Cc3nn([C@H]4C[C@H](c5ccc(Cl)cc5)C4)c(=O)o3)c(=O)c21 [compound 64, trans-3-[3-(4-chlorophenyl)cyclobutyl]-5-[(1-methyl-7-oxo-triazolo[4,5-d]pyrimidin-6-yl)methyl]-1,3,4-oxadiazol-2-one] | 76.9
15 | O=c1c2cccc(=O)n2ccn1Cc1nn([C@H]2C[C@H](c3ccc(Cl)cc3)C2)c(=O)o1 [compound 65, trans-2-[[4-[3-(4-chlorophenyl)cyclobutyl]-5-oxo-1,3,4-oxadiazol-2-yl]methyl]pyrido[1,2-a]pyrazine-1,6-dione] | 21.1

Other lines, results leading:

Row | IC50 [nM] | Structure (SMILES)
16 | 12.5 | Cc1ccnc2ncn(Cc3nn([C@H]4C[C@H](c5ccc6ncccc6c5)C4)c(=O)o3)c(=O)c12 [compound 66, 5-[(5-methyl-4-oxo-pyrido[2,3-d]pyrimidin-3-yl)methyl]-3-[3-(6-quinolyl)cyclobutyl]-1,3,4-oxadiazol-2-one]
17 | 785 | Cn1cnc2ncn(Cc3nn([C@H]4C[C@H](Oc5ccc(Cl)cc5)C4)c(=O)o3)c(=O)c21 [compound 69, 3-[3-(4-chlorophenoxy)cyclobutyl]-5-[(7-methyl-6-oxo-purin-1-yl)methyl]-1,3,4-oxadiazol-2-one]
18 | 17.7 | Cn1cnc2ncn(Cc3nn([C@H]4C[C@H](Oc5cccc(Cl)c5)C4)c(=O)o3)c(=O)c21 [compound 70, trans-3-[3-(3-chlorophenoxy)cyclobutyl]-5-[(7-methyl-6-oxo-purin-1-yl)methyl]-1,3,4-oxadiazol-2-one]
19 | 59.7 | Cn1cnc2ncn(Cc3nn([C@H]4C[C@H](c5ccc(C#N)cc5)C4)c(=O)o3)c(=O)c21 [compound 71, 4-[3-[5-[(7-methyl-6-oxo-purin-1-yl)methyl]-2-oxo-1,3,4-oxadiazol-3-yl]cyclobutyl]benzonitrile]
20 | 5.88 | O=c1c2c(Cl)ccnc2ncn1Cc1nn([C@H]2C[C@H](c3ccc(Cl)cc3)C2)c(=O)o1 [compound 73, 5-[(5-chloro-4-oxo-pyrido[2,3-d]pyrimidin-3-yl)methyl]-3-[3-(4-chlorophenyl)cyclobutyl]-1,3,4-oxadiazol-2-one]
21 | 77.5 | Cn1cnc2ncn(Cc3nn(CCCOc4cccc(F)c4)c(=O)o3)c(=O)c21 [compound 74, 3-[3-(3-fluorophenoxy)propyl]-5-[(7-methyl-6-oxo-purin-1-yl)methyl]-1,3,4-oxadiazol-2-one]
22 | 40.5 | Cc1ccnc2ncn(Cc3nn([C@H]4C[C@](F)(c5cccc(F)c5)C4)c(=O)o3)c(=O)c12 [compound 75, 3-[3-fluoro-3-(3-fluorophenyl)cyclobutyl]-5-[(5-methyl-4-oxo-pyrido[2,3-d]pyrimidin-3-yl)methyl]-1,3,4-oxadiazol-2-one]
23 | 21.4 | Cc1ccnc2ncn(Cc3nn([C@H]4C[C@](F)(c5ccc(C#N)cc5)C4)c(=O)o3)c(=O)c12 [compound 77, 4-[1-fluoro-3-[5-[(5-methyl-4-oxo-pyrido[2,3-d]pyrimidin-3-yl)methyl]-2-oxo-1,3,4-oxadiazol-3-yl]cyclobutyl] benzonitrile]
24 | 2.58 | Cc1ccnc2ncn(Cc3nn([C@H]4C[C@H](c5ccc(C#N)cc5)C4)c(=O)o3)c(=O)c12 [compound 79, 4-[3-[5-[(5-methyl-4-oxo-pyrido[2,3-d]pyrimidin-3-yl)methyl]-2-oxo-1,3,4-oxadiazol-3-yl]cyclobutyl]benzonitrile]
25 | 15.2 | Cn1c(=O)ccc2ncn(Cc3nn([C@H]4C[C@H](c5ccc(Cl)cc5)C4)c(=O)o3)c(=O)c21 [compound 83, 3-((4-((trans)-3-(4-chlorophenyl)cyclobutyl)-5-oxo-4,5-dihydro-1,3,4-oxadiazol-2-yl)methyl)-5-methylpyrido[3,2-d]pyrimidine-4,6(3H,5H)-dione]
26 | 6.34 | Cc1ccnc2ncn(Cc3nn(CCCOc4cccc(Cl)c4)c(=O)o3)c(=O)c12 [compound 85, 3-(3-(3-chlorophenoxy)propyl)-5-((5-methyl-4-oxopyrido[2,3-d]pyrimidin-3(4H)-yl)methyl)-1,3,4-oxadiazol-2(3H)-one]
27 | 22.6 | Cn1cnc2ncn(Cc3nn(CCCOc4cccc(Cl)c4)c(=O)o3)c(=O)c21 [compound 86, 1-([4-[3-(3-chlorophenoxy)propyl]-5-oxo-4,5-dihydro-1,3,4-oxadiazol-2-yl]methyl)-7-methyl-6,7-dihydro-1H-purin-6-one]
28 | 5.76 | Cc1ccnc2ncn(Cc3nn([C@H]4C[C@H](c5ccc(F)cc5)C4)c(=O)o3)c(=O)c12 [compound 88, 3-[3-(4-fluorophenyl)cyclobutyl]-5-[(5-methyl-4-oxo-pyrido[2,3-d]pyrimidin-3-yl)methyl]-1,3,4-oxadiazol-2-one]
29 | 45.7 | Cn1cnc2cnn(Cc3nn([C@H]4C[C@H](c5ccc(Cl)cc5)C4)c(=O)o3)c(=O)c21 [compound 89, 3-[3-(4-chlorophenyl)cyclobutyl]-5-[(3-methyl-4-oxo-imidazo[4,5-d]pyridazin-5-yl)methyl]-1,3,4-oxadiazol-2-one]
30 | 79.9 | O=c1c2cccnc2cnn1Cc1nn([C@H]2C[C@H](c3ccc(Cl)cc3)C2)c(=O)o1 [compound 90, 3-[3-(4-chlorophenyl)cyclobutyl]-5-[(5-oxopyrido[2,3-d]pyridazin-6-yl)methyl]-1,3,4-oxadiazol-2-one]
31 | 36.2 | Cc1noc2ncn(Cc3nn([C@H]4C[C@H](c5ccc(Cl)cc5)C4)c(=O)o3)c(=O)c12 [compound 91, 5-[[4-[3-(4-chlorophenyl)cyclobutyl]-5-oxo-1,3,4-oxadiazol-2-yl]methyl]-3-methyl-isoxazolo[5,4-d]pyrimidin-4-one]
32 | 8.26 | Cn1cnc2ncn(Cc3nn([C@@H]4CC[C@@H](c5ccc(F)cc5)C4)c(=O)o3)c(=O)c21 [compound 92, 5-[(7-methyl-6-oxo-purin-1-yl)methyl]-3-[(1R,3R)-3-(4-fluorophenyl)cyclopentyl]-1,3,4-oxadiazol-2-one]
